# From patent US10781420B2, “Method for producing cerebellar progenitor tissue” (RIKEN, priority 2014, dated 2020)
# B1: BMP4: factor known to promote formation of rhombic lip in mouse (protein, UniProt P12644 293-408, looked up)
# Bone morphogenetic protein 4: SPKHHSQRARKKNKNCRRHSLYVDFSDVGWNDWIVAPPGYQAFYCHGDCPFPLADHLNSTNHAIVQTLVNSVNSSIPKACCVPTELSAISMLYLDEYDKVVLKNYQEMVVEGCGCR
# B2: FGF17: fibroblast growth factor used instead of FGF19 (protein, UniProt O60258 23-216, looked up)
# Fibroblast growth factor 17: TQGENHPSPNFNQYVRDQGAMTDQLSRRQIREYQLYSRTSGKHVQVTGRRISATAEDGNKFAKLIVETDTFGSRVRIKGAESEKYICMNKRGKLIGKPSGKSKDCVFTEIVLENNYTAFQNARHEGWFMAFTRQGRPRQASRSRQNQREAHFIKRLYQGQLPFPNHAEKQKQFEFVGSAPTRRTKRTRRPQPLT
# B3: FGF8: fibroblast growth factor used instead of FGF19 (protein, UniProt P55075 23-233, looked up)
# Fibroblast growth factor 8: QEGPGRGPALGRELASLFRAGREPQGVSQQHVREQSLVTDQLSRRLIRTYQLYSRTSGKHVQVLANKRINAMAEDGDPFAKLIVETDTFGSRVRVRGAETGLYICMNKKGKLIAKSNGKGKDCVFTEIVLENNYTALQNAKYEGWYMAFTRKGRPRKGSKTRQHQREVHFMKRLPRGHHTTEQSLRFEFLNYPPFTRSLRGSQRTWAPEPR
# B4: GDF7: known cytokine promoting differentiation into cerebellar granule cell progenitors and formation of rhombic lip (protein, UniProt Q7Z4P5 322-450, looked up)
# Growth/differentiation factor …: TALAGTRTAQGSGGGAGRGHGRRGRSRCSRKPLHVDFKELGWDDWIIAPLDYEAYHCEGLCDFPLRSHLEPTNHAIIQTLLNSMAPDAAPASCCVPARLSPISILYIDAANNVVYKQYEDMVVEACGCR
# Assays:
# Type in all cases: cell-based
# [1] = test system: Human pluripotent stem cell aggregates; experiment: Self-formation of cerebellar plate tissue (Kirrel2 positive neuroepithelium) from human pluripotent stem cell aggregates
# Method: The was aggregates were transferred to a low-cell-adhesion 10 cm dish on and after day 21, and cultured in a neural culture medium (Neurobasal/GlutaMaxI/N2, all Life Technologies). On day 28 of culturing, the total amount of the medium was exchanged with the same neural culture medium, and differentiation of the tissue was analyzed by the immunofluorescence method on day 35 of culturing.
# Separated Kirrel2 positive cells, and cerebellar granule cell progenitors prepared from the upper rhombic lip of embryonic day 14 mouse were dispersed into single cells by cell dispersion enzyme (TrypLE, Life Technologies), and cocultured on a cover glass coated with poly D-lysine/laminin in DMEM/F12/10% FBS medium (5% CO2, 37° C.). In coculture, human pluripotent stem cell-derived Kirrel positive cells (1 vol) relative to mouse-derived cerebellar granule cell progenitors (10 vol) were mixed. After 6-12 hr, DMEM/F12/N2/BSA/Tri-iodothyronine (T3) was added to decrease the FBS concentration to about 0.8%.
# Human ES cells (KhES-1) = experiment: Differentiation of human ES cell aggregates (SFEBq method) into midbrain-hindbrain boundary neural progenitors
# Method: Human ES cells (KhES-1) subjected to maintenance culturing on MEF by a conventional method were used. To differentiate human ES cells by the serum-free floating culture of embryoid body-like aggregates with quick reaggregation (SFEBq method), human ES cells were enzymatically dispersed to single cells, according to the method of Nakano et al. (Cell Stem Cell, 10(6), 771-785, 2012), and reaggregated using a low-cell-adhesive V-bottom 96 well plate (SUMITOMO BAKELITE). 6,000 cells were seeded per well, and cultured in, as a differentiation medium, CDM medium [chemical synthesis medium without a growth factor (growth-factor-free Chemically Defined Medium; gfCDM; Wataya et al., Proc. Natl. Acad. Sci. USA, 105, 11796-11801, 2008) supplemented with insulin (7 μg/ml) and apo-transferrin (15 μg/ml)] under 5% CO2 at 37° C.
# The seeding day is taken as day 0 of differentiation culturing. […] […] On day 7, ⅓ of the medium was exchanged with a differentiation medium free of Y-27632, SB431542 and Fgf2. On day 14 of culturing, the medium was completely substituted by a differentiation medium free of Y-27632, SB431542 and FGF2. The cell aggregates were fixed and sliced, and tissue differentiation was analyzed by the immunofluorescence method and quantitative PCR method.
# [2] = test system: Human pluripotent stem cell aggregates; experiment: Formation of rhombic lip and 3 layer structure of cerebellar plate by addition of SDF1
# Method: Human pluripotent stem cell aggregates were cultured according to the method of Example 6. On and after day 21, the cells were cultured in a neural culture medium (Neurobasal/GlutaMaxI/N2). On day 28, the total amount of the medium was exchanged with the same medium, and SDF1 was added at a final concentration of 300 ng/ml. On day 35, differentiation of the tissue was analyzed by the immunofluorescence method.
# [3] = test system: Purkinje cells induced from human pluripotent stem cell aggregates; experiment: Patch clamp analysis of Purkinje cells induced from human pluripotent stem cells; details: AMPA receptor inhibitor
# Method: Mature Purkinje cells were differentiated from human pluripotent stem cell aggregates according to the method of Example 3. Using the Patch clamp technique, the electrophysiological reaction thereof was analyzed.
# [4] = test system: Human pluripotent stem cell aggregates; experiment: Formation of cerebellar plate tissue having dorsal-ventral axis pattern by addition of FGF19
# Method: Human pluripotent stem cell aggregates were cultured according to the methods of Examples 1 and 2. […] The cells were cultured in a neural culture medium (Neurobasal/GlutaMaxI/N2) on and after day 21. On day 28, the total amount of the medium was exchanged with the same medium, and on day 35, tissue differentiation was analyzed by the immunofluorescence method.
# [5] = test system: Human pluripotent stem cell aggregates; experiment: Formation of rhombic lip in cerebellar plate tissue by addition of GDF7
# Method: Human pluripotent stem cell aggregates were cultured according to the method of Example 6. […] The cells were continuously cultured in a neural culture medium (Neurobasal/GlutaMaxI/N2). On day 28, the total amount of the medium was exchanged with the same medium free of GDF7, and on day 35, the cells were analyzed by the immunofluorescence method and the quantitative PCR method.
# [6] = FGF2 50 ng/ml day 2 to day 7 vs Fgf2 non-addition, quantitative PCR
# [7] = SDF1 300 ng/ml added on day 28, analysed day 35
# [8] = FGF19 100 ng/ml added on day 14, analysed day 35
# [9] = GDF7 100 ng/ml added on day 21, day 35, quantitative PCR
# [10] = GDF7 added from day 14 of culturing
molecule,measurement,setting,value
"CC1=C2C[C@H]3[C@@H](CC=C4C[C@@H](O)CC[C@@]43C)[C@@H]2CC[C@]12O[C@@H]1C[C@H](C)CN[C@H]1[C@H]2C [cyclopamine, reference compound]",cerebellar plate formation from human pluripotent stem cells,[1]; Hedgehog inhibitor added,did not significantly promote cerebellar plate formation
FGF2: known cytokine also called basic fibroblast growth factor (bFGF); first fibroblast growth factor,differentiation into neural progenitors in the midbrain-hindbrain boundary,Human ES cells (KhES-1); FGF2 20 ng/ml,promoted differentiation into neural progenitors in the midbrain-hindbrain boundary
same,expression of forebrain markers Six3 and Otx2,Human ES cells (KhES-1); [6],suppressed
same,"expression of midbrain-hindbrain boundary markers En2, Gbx2",Human ES cells (KhES-1); [6],markedly increased
same,differentiation into neural progenitors in the midbrain-hindbrain boundary,Human ES cells (KhES-1); FGF2 100 ng/ml,promoted differentiation into neural progenitors in the midbrain-hindbrain boundary
same,differentiation into neural progenitors in the midbrain-hindbrain boundary,Human ES cells (KhES-1); FGF2 5-10 ng/ml (concentration used for maintenance culturing of ES cells),did not show promotion of differentiation
same,differentiation into neural progenitors in the midbrain-hindbrain boundary,Human ES cells (KhES-1); FGF2 added days 2-7,showed the highest effect
same,differentiation into neural progenitors in the midbrain-hindbrain boundary,Human ES cells (KhES-1); FGF2 added days 2-14,exhibited a promoting effect
same,differentiation into neural progenitors in the midbrain-hindbrain boundary,Human ES cells (KhES-1); FGF2 added days 3-7,exhibited a promoting effect
same,differentiation into neural progenitors in the midbrain-hindbrain boundary,Human ES cells (KhES-1); FGF2 added days 4-7,exhibited a promoting effect
same,differentiation into neural progenitors in the midbrain-hindbrain boundary,Human ES cells (KhES-1); FGF2 added from day 0,remarkable promotion of differentiation into neural progenitors in the midbrain-hindbrain boundary was not observed
same,differentiation into neural progenitors in the midbrain-hindbrain boundary,Human ES cells (KhES-1); FGF2 added from day 1,remarkable promotion of differentiation into neural progenitors in the midbrain-hindbrain boundary was not observed
same,expression of Fgf8 and Wntl (isthmic organizer),"Human ES cells (KhES-1); FGF2 addition, days 10 and 14",enhanced
same,"kirrel2 positive cells (FACS, anti-kirrel2 antibody)","[1]; day 35, cells exposed to Fgf2",~30%
"C[C@@H](N)[C@H]1CC[C@H](C(=O)Nc2ccncc2)CC1 [Y-27632, (+)-(R)-trans-4-(1-aminoethyl)-N-(4-pyridyl)cyclohexanecarboxamide, reference compound]",aggregate formation of human ES cells,Human ES cells (KhES-1); when Y-27632 was not added,did not form an aggregate
"SDF1: known chemokine also called CXCL12, secreted ligand for chemokine receptor 4 (CXCR4)",formation of rhombic lip and 3 layer structure of cerebellar plate,[2]; SDF1 100 ng/ml,promoted formation of rhombic lip and formation of a 3 layer structure of cerebellar plate
same,configuration of the rhombic lip,[2]; [7],enables continuous configuration of the rhombic lip
same,formation of continuous kirrel2 positive neuroepithelial structure,[2]; [7],promoted formation of a continuous kirrel2 positive neuroepithelial structure
same,formation of rhombic lip and 3 layer structure of cerebellar plate,[2]; SDF1 500 ng/ml,promoted formation of rhombic lip and formation of a 3 layer structure of cerebellar plate
same,formation of rhombic lip and 3 layer structure of cerebellar plate,[2]; SDF1 added from day 21,an effect similar to that when added from day 28 was observed
NS(=O)(=O)c1cccc2c1c([N+](=O)[O-])cc1nc(O)c(O)nc12 [NBQX],miniature excitatory postsynaptic current,[3],suppression of miniature excitatory postsynaptic current
"NC(=O)c1ccc(-c2nc(-c3ccc4c(c3)OCO4)c(-c3ccccn3)[nH]2)cc1 [SB431542, 4-(5-benzol[1,3]dioxol-5-yl-4-pyridin-2-yl-1H-imidazol-2-yl)-benzamide, reference compound]",induction of differentiation into neural progenitors,Human ES cells (KhES-1); SB431542 3 μM,induction of differentiation into neural progenitors was also observed
same,differentiation into neural progenitors in the midbrain-hindbrain boundary,Human ES cells (KhES-1); SB431542 10-30 μM,induced differentiation into neural progenitors in the midbrain-hindbrain boundary
"FGF19: known cytokine, human ortholog of mouse Fgf15; second fibroblast growth factor",effect (frequency) on dorsal-ventral polarity formation relative to that at 100 ng/ml,[4]; FGF19 50 ng/ml,about ⅓
same,formation of structure having polarity along the dorsal-ventral axis of neural tube,[4]; FGF19 50 ng/ml,promoted formation of a structure having polarity along the dorsal-ventral axis of the neural tube
same,formation of continuous flat-oval neuroepithelial structure in the cell aggregate,[4]; [8],promoted formation of a continuous flat-oval neuroepithelial structure
same,formation of structure having polarity along the dorsal-ventral axis of neural tube,[4]; [8],resulted in the formation of a structure having polarity along the dorsal-ventral axis of neural tube
same,effect (frequency) on dorsal-ventral polarity formation relative to that at 100 ng/ml,[4]; FGF19 300 ng/ml,of the same level as that at 100 ng/ml
same,formation of the dorsal-ventral axis pattern,[4]; FGF19 300 ng/ml,similarly promoted formation of the dorsal-ventral axis pattern
same,formation of a dorsal-ventral axis pattern,[4]; FGF19 added on day 10 of culturing,"formation of a dorsal-ventral axis pattern was promoted, though the efficiency was low"
Sonic Hedgehog,formation of polarized cerebellar plate,[1]; addition of Sonic Hedgehog to human pluripotent stem cell culturing system,conversely promotes formation of polarized cerebellar plate
laminin,formation of rhombic lip and 3 layer structure of cerebellar plate,[2]; used in place of SDF1,could not substitute SDF1
B1,formation of the rhombic lip from human pluripotent stem cell,[5]; BMP4 used instead of GDF7,could not be induced
B2,formation of a dorsal-ventral axis pattern,[4]; used instead of FGF19,"promoted like FGF19, though the effect was weaker than FGF19"
B3,formation of a dorsal-ventral axis pattern,[4]; used instead of FGF19,"promoted like FGF19, though the effect was weaker than FGF19"
B4,expression of Atoh1 positive cell in neural progenitor tissue,"[5]; GDF7 100 ng/ml added on day 21, analysed day 35, immunofluorescence",promoted expression of Atoh1 positive cell
same,Atoh1 gene level relative to that by the addition of FGF2 (first comparison printed),[5]; [9],about 220 fold
same,Atoh1 gene level relative to that by the addition of FGF2 (second comparison printed),[5]; [9],1.5 fold
same,growth of cell aggregate,[5]; [10],growth of cell aggregate was inhibited
same,induction of Atoh1 positive cell,[5]; [10],Atoh1 positive cell was induced
same,formation of the rhombic lip,[5]; GDF7 not removed from the medium on and after day 28,adverse influence on the formation of the rhombic lip was not found
